Reference: PubChem BioAssay AID1963971 (Molecular Pharmacology Branch, DTP, NCI, 2024)

Tested on: 953936-095-R-J2-PDC spheroids with HUVEC/MSC, viability
Test: Anticancer human tumor 953936-095-R-J2-PDC patient-derived cervical squamous cell carcinoma cell line growth inhibition [PI3K]
Conditions: for IC50: curve of first compound; for viability, T/C: stronger effect = lower value
Text: Combinatorial screen of targeted agents with the PI3K inhibitors inavolisib, alpelisib, duvelisib, and copanlisib in multi-cell type tumor spheroids
A high-throughput screen of multi-cell type tumor spheroids was designed to identify active combinations of targeted small molecules and PI3K pathway inhibitors. Complex spheroids include a stromal component modeled by human endothelial cells (HUVEC) and fibroblasts modeled by human mesenchymal stem cells (MSCs). The concentration ranges selected for each drug and investigational agent were based upon clinically achievable concentrations if the clinical Cmax of the agent was known.
Compounds. The drugs and investigational agents: inavolisib (NSC800729), alpelisib (NSC765974), duvelisib (NSC772469), copanlisib (NSC816437), ipatasertib (NSC767898), afuresertib (NSC778305), talazoparib (NSC767125), sapanisertib (NSC764658), selumetinib (NSC741078), tovorafenib (DAY101, NSC766906), vemurafenib (NSC761431), ravoxertinib (NSC781343), sotorasib (NSC818433), MRTX1133 (NSC 836407), abemaciclib (NSC 768073), palbociclib (NSC758247), venetoclax (NSC 766270), SY5609 (NSC837396), enzalutamide (NSC755605), and darolutamide (NSC825331), were obtained from the National Cancer Institute (NCI) Developmental Therapeutics Program Chemical Repository. The FDA-approved anticancer drug set is available from the NCI Developmental Therapeutics Program. […] The stock solutions were prepared in dimethyl sulfoxide (DMSO, Sigma-Aldrich, St. Louis, MO, cat. D2650) at 800-fold the tested concentration and stored at -70 degrees C prior to their use. All drugs and investigational agents were tested over a range starting from a high concentration at or near the clinical Cmax and decreasing in half-log increments. If the clinical Cmax for an agent had not been determined, the highest concentration tested was 10 microM.
Cell Culture. All cells were maintained in an incubator at 37 degrees C and 5% CO2 with 95% humidity. The PDC lines were cultured according to standard operating procedures established by the NCI PDMR (https://pdmr.cancer.gov/sops/default.htm). All PDCs were thawed and cultured in Matrigel-coated flasks prepared with a working solution of 1X Ham's F-12 nutrient mix, without supplementation (Invitrogen, Waltham, MA, cat. 11765054), 100 U/mL penicillin-streptomycin (Invitrogen, cat. 15140122), and 2.5% Matrigel (Corning Inc., Corning, NY, cat. 354248) for the first three passages. The 354836-022-R-J1-PDC, 475296-252-R-J1-PDC, and 997726-040-R-J2-PDC lines were cultured in 6A media, which includes advanced DMEM/F-12 (Thermo Fisher Scientific, cat. 12634028), 10 mM HEPES (Thermo Fisher Scientific, cat. 15630080), 1X GlutaMAX supplement (Thermo Fisher Scientific, cat. 35050061), 0.1 mg/mL primocin (InvivoGen, San Diego, CA, cat. ant-pm-2), 10% defined fetal bovine serum, heat inactivated (HyClone Laboratories Inc., Logan, UT, cat. SH30070.03HI), 50% L-WRN conditioned media (ATCC, cat. CRL-3276), 1.25 mM N-Acetyl-L-cysteine (Sigma-Aldrich, cat. A9165), 10 mM nicotinamide (Sigma-Aldrich, cat. N0636), 1X B-27 supplement (Thermo Fisher Scientific, cat. 17504044), 1X N-2 supplement (Thermo Fisher Scientific, cat. 17502048), and 10 microM Y-27632 dihydrochloride (Tocris Bioscience, Bristol, United Kingdom, cat. 1254). The 624824-186-R-J2-PDC line was cultured in 6C/Colon 1B media, which includes all 6A media components plus 50 ng/mL human EGF recombinant protein (Thermo Fisher Scientific, cat. PHG0311). […]

[1] = second compound 0.0316 µM, first compound 0.0316 µM
[2] = second compound 0.0316 µM, first compound 0.1 µM
[3] = second compound 0.0316 µM, first compound 0.316 µM
[4] = second compound 0.0316 µM, first compound 1 µM
[5] = second compound 0.0316 µM, first compound 3.16 µM
[6] = second compound 0.0316 µM, first compound 10 µM
[7] = second compound 0.1 µM, first compound 0.0316 µM
[8] = second compound 0.1 µM, first compound 0.1 µM
[9] = second compound 0.1 µM, first compound 0.316 µM
[10] = second compound 0.1 µM, first compound 1 µM
[11] = second compound 0.1 µM, first compound 3.16 µM
[12] = second compound 0.1 µM, first compound 10 µM
[13] = second compound 0.316 µM, first compound 0.0316 µM
[14] = second compound 0.316 µM, first compound 0.1 µM
[15] = second compound 0.316 µM, first compound 0.316 µM
[16] = second compound 0.316 µM, first compound 1 µM
[17] = second compound 0.316 µM, first compound 3.16 µM
[18] = second compound 0.316 µM, first compound 10 µM
[19] = second compound 1 µM, first compound 0.0316 µM
[20] = second compound 1 µM, first compound 0.1 µM
[21] = second compound 1 µM, first compound 0.316 µM
[22] = second compound 1 µM, first compound 1 µM
[23] = second compound 1 µM, first compound 3.16 µM
[24] = second compound 1 µM, first compound 10 µM
[25] = second compound 3.16 µM, first compound 0.0316 µM
[26] = second compound 3.16 µM, first compound 0.1 µM
[27] = second compound 3.16 µM, first compound 0.316 µM
[28] = second compound 3.16 µM, first compound 1 µM
[29] = second compound 3.16 µM, first compound 3.16 µM
[30] = second compound 3.16 µM, first compound 10 µM
[31] = second compound 10 µM, first compound 0.0316 µM
[32] = second compound 10 µM, first compound 0.1 µM
[33] = second compound 10 µM, first compound 0.316 µM
[34] = second compound 10 µM, first compound 1 µM
[35] = second compound 10 µM, first compound 3.16 µM
[36] = second compound 10 µM, first compound 10 µM
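Also: spheroids exposed to compounds for seven days before read-out.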

## C[C@@H](NC(=O)c1ncnc(N)c1Cl)c1ncc(C(=O)Nc2cc(C(F)(F)F)c(Cl)cn2)s1 + COc1c(OCCCN2CCOCC2)ccc2c3n(c(=NC(=O)c4cnc(N)nc4)nc12)CCN3
Second compound 0.00316 µM
  IC50: > 10 µM
Second compound 0.01 µM
  IC50: > 10 µM
Second compound 0.0316 µM
  IC50: < 0.0316 µM
Second compound 0.1 µM
  IC50: < 0.0316 µM
Second compound 0.316 µM
  IC50: < 0.0316 µM
Second compound 1 µM
  IC50: < 0.0316 µM
Second compound 0.00316 µM, first compound 0.0316 µM
  viability, T/C: 89.7%
Second compound 0.00316 µM, first compound 0.1 µM
  viability, T/C: 91.8%
Second compound 0.00316 µM, first compound 0.316 µM
  viability, T/C: 88.7%
Second compound 0.00316 µM, first compound 1 µM
  viability, T/C: 104%
Second compound 0.00316 µM, first compound 3.16 µM
  viability, T/C: 110%
Second compound 0.00316 µM, first compound 10 µM
  viability, T/C: 106%
Second compound 0.01 µM, first compound 0.0316 µM
  viability, T/C: 73.7%
Second compound 0.01 µM, first compound 0.1 µM
  viability, T/C: 77.9%
Second compound 0.01 µM, first compound 0.316 µM
  viability, T/C: 84.7%
Second compound 0.01 µM, first compound 1 µM
  viability, T/C: 86.9%
Second compound 0.01 µM, first compound 3.16 µM
  viability, T/C: 85.5%
Second compound 0.01 µM, first compound 10 µM
  viability, T/C: 77.3%
[1]
  viability, T/C: 40.9%
[2]
  viability, T/C: 50%
[3]
  viability, T/C: 48.1%
[4]
  viability, T/C: 49.7%
[5]
  viability, T/C: 54.9%
[6]
  viability, T/C: 48.7%
[7]
  viability, T/C: 19.3%
[8]
  viability, T/C: 22%
[9]
  viability, T/C: 22.8%
[10]
  viability, T/C: 21.9%
[11]
  viability, T/C: 23%
[12]
  viability, T/C: 20.7%
[13]
  viability, T/C: 7.52%
[14]
  viability, T/C: 8.48%
[15]
  viability, T/C: 7.48%
[16]
  viability, T/C: 9.8%
[17]
  viability, T/C: 10.3%
[18]
  viability, T/C: 7.69%
[19]
  viability, T/C: 1.88%
[20]
  viability, T/C: 2.05%
[21]
  viability, T/C: 2.83%
[22]
  viability, T/C: 2.99%
[23]
  viability, T/C: 3.46%
[24]
  viability, T/C: 3.33%

## Cn1nccc1Nc1nccc(-c2ccn(C(CO)c3ccc(Cl)c(F)c3)c(=O)c2)n1 (stereo unspecified) + Cc1nc(NC(=O)N2CCCC2C(N)=O)sc1-c1ccnc(C(C)(C)C(F)(F)F)c1
Second compound 0.0316 µM
  IC50: > 10 µM
Second compound 0.1 µM
  IC50: > 10 µM
Second compound 0.316 µM
  IC50: > 10 µM
Second compound 1 µM
  IC50: < 0.0316 µM
Second compound 3.16 µM
  IC50: < 0.0316 µM
Second compound 10 µM
  IC50: < 0.0316 µM
[1]
  viability, T/C: 77.7%
[2]
  viability, T/C: 89.9%
[3]
  viability, T/C: 78.3%
[4]
  viability, T/C: 69.5%
[5]
  viability, T/C: 72.9%
[6]
  viability, T/C: 67.1%
[7]
  viability, T/C: 77.1%
[8]
  viability, T/C: 76.3%
[9]
  viability, T/C: 66.7%
[10]
  viability, T/C: 74.3%
[11]
  viability, T/C: 63%
[12]
  viability, T/C: 68.5%
[13]
  viability, T/C: 63.3%
[14]
  viability, T/C: 55.9%
[15]
  viability, T/C: 52.6%
[16]
  viability, T/C: 56.4%
[17]
  viability, T/C: 57.7%
[18]
  viability, T/C: 52.6%
[19]
  viability, T/C: 45.3%
[20]
  viability, T/C: 39.7%
[21]
  viability, T/C: 38.8%
[22]
  viability, T/C: 37.6%
[23]
  viability, T/C: 40.1%
[24]
  viability, T/C: 31.9%
[25]
  viability, T/C: 23.5%
[26]
  viability, T/C: 23.9%
[27]
  viability, T/C: 21.1%
[28]
  viability, T/C: 17.2%
[29]
  viability, T/C: 15.2%
[30]
  viability, T/C: 10.8%
[31]
  viability, T/C: 11.4%
[32]
  viability, T/C: 9.37%
[33]
  viability, T/C: 6.34%
[34]
  viability, T/C: 4.57%
[35]
  viability, T/C: 3.58%
[36]
  viability, T/C: 1.86%

## C#Cc1c(F)ccc2cc(O)cc(-c3ncc4c(N5CC6CCC(C5)N6)nc(OCC56CCCN5CC(F)C6)nc4c3F)c12 (stereo unspecified) + CC(Nc1ncnc2nc[nH]c12)c1cc2cccc(Cl)c2c(=O)n1-c1ccccc1
Second compound 0.0316 µM
  IC50: > 10 µM
Second compound 0.1 µM
  IC50: > 10 µM
Second compound 0.316 µM
  IC50: > 10 µM
Second compound 1 µM
  IC50: > 10 µM
Second compound 3.16 µM
  IC50: 6.34 µM
Second compound 10 µM
  IC50: 1.8 µM
[1]
  viability, T/C: 90.6%
[2]
  viability, T/C: 91.9%
[3]
  viability, T/C: 105%
[4]
  viability, T/C: 97.1%
[5]
  viability, T/C: 91.3%
[6]
  viability, T/C: 67.2%
[7]
  viability, T/C: 95.2%
[8]
  viability, T/C: 98.3%
[9]
  viability, T/C: 99.9%
[10]
  viability, T/C: 104%
[11]
  viability, T/C: 80.2%
[12]
  viability, T/C: 70.8%
[13]
  viability, T/C: 94%
[14]
  viability, T/C: 95.2%
[15]
  viability, T/C: 90.5%
[16]
  viability, T/C: 82.2%
[17]
  viability, T/C: 75.2%
[18]
  viability, T/C: 67.8%
[19]
  viability, T/C: 96.2%
[20]
  viability, T/C: 83.5%
[21]
  viability, T/C: 84.7%
[22]
  viability, T/C: 86.9%
[23]
  viability, T/C: 80%
[24]
  viability, T/C: 57.2%
[25]
  viability, T/C: 87.9%
[26]
  viability, T/C: 79.5%
[27]
  viability, T/C: 76%
[28]
  viability, T/C: 74.3%
[29]
  viability, T/C: 60.3%
[30]
  viability, T/C: 42.6%
[31]
  viability, T/C: 55.8%
[32]
  viability, T/C: 65.4%
[33]
  viability, T/C: 51.7%
[34]
  viability, T/C: 57.3%
[35]
  viability, T/C: 43.3%
[36]
  viability, T/C: 31.2%
